The source of these data is patent US9951065B2 (Gilead Sciences, Inc., priority 2015, dated 2018).

SMILES strings stand for the structures.

The target of this assay is T1, IDO1 (Homo sapiens, UniProt P14902).
T1 construct: HeLa cells were treated with a test compound in the presence of IFNγ, which induces IDO1 expression; host or cells: H1-HeLa cells, IDO1 induced with IFNγ
T1 sequence (P14902 whole entry): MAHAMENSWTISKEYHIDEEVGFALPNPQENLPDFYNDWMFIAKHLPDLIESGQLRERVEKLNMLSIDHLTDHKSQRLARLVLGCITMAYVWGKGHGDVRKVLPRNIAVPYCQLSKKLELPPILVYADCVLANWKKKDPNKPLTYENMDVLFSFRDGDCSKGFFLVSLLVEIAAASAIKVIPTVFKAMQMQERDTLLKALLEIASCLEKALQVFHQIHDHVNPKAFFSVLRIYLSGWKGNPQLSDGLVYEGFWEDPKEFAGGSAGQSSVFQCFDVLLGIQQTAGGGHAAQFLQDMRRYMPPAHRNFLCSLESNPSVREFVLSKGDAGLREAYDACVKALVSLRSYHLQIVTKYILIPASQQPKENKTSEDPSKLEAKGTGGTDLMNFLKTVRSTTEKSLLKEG
The assay can be described thus: Cell-based (HeLa) assay for measurement of IDO1 inhibition (kynurenine levels in supernatant after IFNγ induction). As to conditions: HeLa cells, IFNγ-induced IDO1, kynurenine in supernatant, 48 hour incubation; geometric mean of a minimum of four determinations. The method, boiled down:
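IDO1 activity is read as kynurenine released into the medium, detected with Ehrlich's reagent (p-dimethylaminobenzaldehyde) at 480 nm after TCA treatment. HeLa cells were exposed 48 h to compounds in 0.5% DMSO alongside IFNγ induction. Values normalized to no-IFNγ and IFNγ controls; four-parameter EC50 given as geometric mean of ≥4 determinations.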
Broadly, the EC50 is the concentration giving half of the maximal effect. A high value points to a need for much substance. In the case of `CC(C)N1CCCC(Nc2nc3c(F)c(F)cc(C(=NO)Nc4ccc(F)c(Cl)c4)c3[nH]2)C1` (stereo not drawn) [Example 455, N-(3-chloro-4-fluorophenyl)-4,5-difluoro-N′-hydroxy-2-((1-isopropylpiperidin-3-yl)amino)-1H-benzo[d]imidazole-7-carboximidamide], the EC50 came out at 376 nM.

`COC1CN(CCNc2nc3c(F)c(F)cc(/C(=N/O)Nc4ccc(F)c(Cl)c4)c3[nH]2)C1` [Example 456, N-(3-chloro-4-fluorophenyl)-4,5-difluoro-N′-hydroxy-2-((2-(3-methoxyazetidin-1-yl)ethyl)amino)-1H-benzo[d]imidazole-7-carboximidamide]: the 50% effective concentration (EC50) was 274 nM.

Consider `CN1CC[C@@H](Nc2nc3c(F)c(F)cc(/C(=N/O)Nc4ccc(F)c(Cl)c4)c3[nH]2)C1` [Example 457, (R)—N-(3-chloro-4-fluorophenyl)-4,5-difluoro-N′-hydroxy-2-((1-methylpyrrolidin-3-yl)amino)-1H-benzo[d]imidazole-7-carboximidamide], for which the concentration for a half-maximal effect (EC50) came out at 271 nM.

In turn, `CO[C@@H]1CN(C)C[C@H]1Nc1nc2c(F)c(F)cc(/C(=N/O)Nc3ccc(F)c(Cl)c3)c2[nH]1` [Example 458, N-(3-chloro-4-fluorophenyl)-4,5-difluoro-N′-hydroxy-2-(((3R,4R)-4-methoxy-1-methylpyrrolidin-3-yl)amino)-1H-benzo[d]imidazole-7-carboximidamide] returned a half-maximal effective concentration (EC50) of 261 nM.

The compound `CN1CCC[C@H](Nc2nc3c(F)c(F)cc(/C(=N/O)Nc4cccc(Cl)c4)c3[nH]2)C1` [Example 459, (S)—N-(3-chlorophenyl)-4,5-difluoro-N′-hydroxy-2-((1-methylpiperidin-3-yl)amino)-1H-benzo[d]imidazole-7-carboximidamide] gave a 50% effective concentration (EC50) of 337 nM.

Compound `CN1CCC[C@@H](Nc2nc3c(F)c(F)cc(/C(=N/O)Nc4cccc(Cl)c4)c3[nH]2)C1` [Example 460, (R)—N-(3-chlorophenyl)-4,5-difluoro-N′-hydroxy-2-((1-methylpiperidin-3-yl)amino)-1H-benzo[d]imidazole-7-carboximidamide] returned a 50% effective concentration (EC50) of 193 nM.

`CN(C)C1CCCC1Nc1nc2c(F)c(F)cc(/C(=N/O)Nc3ccc(F)c(Cl)c3)c2[nH]1` (stereo not drawn) [Example 461, N-(3-chloro-4-fluorophenyl)-2-((2-(dimethylamino)cyclopentyl)amino)-4,5-difluoro-N′-hydroxy-1H-benzo[d]imidazole-7-carboximidamide] came in with a concentration for a half-maximal effect (EC50) of 472 nM.

`O/N=C(\Nc1ccc(F)c(Cl)c1)c1cc(F)c(F)c2nc(N[C@H]3CCCCNC3)[nH]c12` [Example 462, (S)-2-(azepan-3-ylamino)-N-(3-chloro-4-fluorophenyl)-4,5-difluoro-N′-hydroxy-1H-benzo[d]imidazole-7-carboximidamide]: the midpoint of the response, the EC50, lay at 1430 nM.

As to `O/N=C(\Nc1ccc(F)c(Cl)c1)c1cc(F)c(F)c2nc(N[C@@H]3CCCCNC3)[nH]c12` [Example 463, (R)-2-(azepan-3-ylamino)-N-(3-chloro-4-fluorophenyl)-4,5-difluoro-N′-hydroxy-1H-benzo[d]imidazole-7-carboximidamide], the midpoint of the response, the EC50, lay at 1020 nM.

With `O/N=C(\Nc1ccc(F)c(Cl)c1)c1cc(F)c(F)c2nc(NC3CCNC3)[nH]c12` (stereo not drawn) [Example 464, N-(3-chloro-4-fluorophenyl)-4,5-difluoro-N′-hydroxy-2-(pyrrolidin-3-ylamino)-1H-benzo[d]imidazole-7-carboximidamide], the EC50 was found to be 2350 nM.

On to `O/N=C(\Nc1ccc(F)c(Cl)c1)c1cc(F)c(F)c2nc(N[C@@H]3CCCN(C4COC4)C3)[nH]c12` [Example 465, (R)-N-(3-chloro-4-fluorophenyl)-4,5-difluoro-N′-hydroxy-2-((1-(oxetan-3-yl)piperidin-3-yl)amino)-1H-benzo[d]imidazole-7-carboximidamide], for which the concentration for a half-maximal effect (EC50) was determined as 957 nM.

For the compound `CC1CCN(C)C(CNc2nc3c(F)c(F)cc(/C(=N/O)Nc4ccc(F)c(Cl)c4)c3[nH]2)C1` (stereo not drawn) [Example 466, N-(3-chloro-4-fluorophenyl)-2-(((1,4-dimethylpiperidin-2-yl)methyl)amino)-4,5-difluoro-N′-hydroxy-1H-benzo[d]imidazole-7-carboximidamide], the response was half-maximal at 685 nM (EC50).

`O/N=C(\Nc1ccc(F)c(Cl)c1)c1cc(F)c(F)c2nc(NCC3COCCN3)[nH]c12` (stereo not drawn) [Example 467, N-(3-chloro-4-fluorophenyl)-4,5-difluoro-N′-hydroxy-2-((morpholin-3-ylmethyl)amino)-1H-benzo[d]imidazole-7-carboximidamide] came in with a half-maximal effective concentration (EC50) of 2120 nM.

For `O/N=C(\Nc1ccc(F)c(Cl)c1)c1cc(F)c(F)c2nc(N[C@@H]3CNC[C@@H]3O)[nH]c12` [Example 468, N-(3-chloro-4-fluorophenyl)-4,5-difluoro-N′-hydroxy-2-(((3R,4S)-4-hydroxypyrrolidin-3-yl)amino)-1H-benzo[d]imidazole-7-carboximidamide], the EC50 is more than 10000 nM.

Take `CN1[C@@H]2CCC(Nc3nc4c(F)c(F)cc(/C(=N/O)Nc5ccc(F)c(Cl)c5)c4[nH]3)[C@H]1CC2` (stereo partly drawn) [Example 469, N-(3-chloro-4-fluorophenyl)-4,5-difluoro-N′-hydroxy-2-(((1R,5R)-8-methyl-8-azabicyclo[3.2.1]octan-2-yl)amino)-1H-benzo[d]imidazole-7-carboximidamide]: the EC50 is 959 nM.

For the compound `O/N=C(\Nc1ccc(F)c(Cl)c1)c1cc(F)c(F)c2nc(NCCN3CCC[C@H]3C(F)(F)F)[nH]c12` [Example 470, (S)-N-(3-chloro-4-fluorophenyl)-4,5-difluoro-N′-hydroxy-2-((2-(2-(trifluoromethyl)pyrrolidin-1-yl)ethyl)amino)-1H-benzo[d]imidazole-7-carboximidamide], the midpoint of the response, the EC50, lay at 4200 nM.

`O/N=C(\Nc1ccc(F)c(Cl)c1)c1cc(F)c(F)c2nc(NCC34CCCN3CCC4)[nH]c12` [Example 471, N-(3-chloro-4-fluorophenyl)-4,5-difluoro-2-(((hexahydro-1H-pyrrolizin-7a-yl)methyl)amino)-N′-hydroxy-1H-benzo[d]imidazole-7-carboximidamide] gave a half-maximal effective concentration (EC50) of 852 nM.

Take `CC1(C)CNC1CNc1nc2c(F)c(F)cc(/C(=N/O)Nc3ccc(F)c(Cl)c3)c2[nH]1` (stereo not drawn) [Example 472, N-(3-chloro-4-fluorophenyl)-2-(((3,3-dimethylazetidin-2-yl)methyl)amino)-4,5-difluoro-N′-hydroxy-1H-benzo[d]imidazole-7-carboximidamide]: a half-maximal response (EC50) required 2450 nM.

As for `O/N=C(\Nc1ccc(F)c(Cl)c1)c1cc(F)c(F)c2nc(NC3COCCC3N3CCCC3)[nH]c12` (stereo not drawn) [Example 473, N-(3-chloro-4-fluorophenyl)-4,5-difluoro-N′-hydroxy-2-((4-(pyrrolidin-1-yl)tetrahydro-2H-pyran-3-yl)amino)-1H-benzo[d]imidazole-7-carboximidamide], the concentration for a half-maximal effect (EC50) stood at 1030 nM.

As to `N[C@@H]1CCCC[C@@H]1Nc1nc2c(F)c(F)cc(/C(=N/O)Nc3ccc(F)c(Cl)c3)c2[nH]1` [Example 474, 2-(((1S,2R)-2-aminocyclohexyl)amino)-N-(3-chloro-4-fluorophenyl)-4,5-difluoro-N′-hydroxy-1H-benzo[d]imidazole-7-carboximidamide], the EC50 came out at 7580 nM.

Turning to `CN1Cc2ccccc2C(Nc2nc3c(F)c(F)cc(/C(=N/O)Nc4ccc(F)c(Cl)c4)c3[nH]2)C1` (stereo not drawn) [Example 475, N-(3-chloro-4-fluorophenyl)-4,5-difluoro-N′-hydroxy-2-((2-methyl-1,2,3,4-tetrahydroisoquinolin-4-yl)amino)-1H-benzo[d]imidazole-7-carboximidamide], a half-maximal response (EC50) required 1990 nM.

For the compound `CCN(CC)[C@@H]1COC[C@H]1Nc1nc2c(F)c(F)cc(/C(=N/O)Nc3ccc(F)c(Cl)c3)c2[nH]1` [Example 476, N-(3-chloro-4-fluorophenyl)-2-(((3S,4S)-4-(diethylamino)tetrahydrofuran-3-yl)amino)-4,5-difluoro-N′-hydroxy-1H-benzo[d]imidazole-7-carboximidamide], a half-maximal response (EC50) required 468 nM.

`O/N=C(\Nc1ccc(F)c(Cl)c1)c1cc(F)c(F)c2nc(NC3CNCCOC3)[nH]c12` (stereo not drawn) [Example 477, 2-((1,4-oxazepan-6-yl)amino)-N-(3-chloro-4-fluorophenyl)-4,5-difluoro-N′-hydroxy-1H-benzo[d]imidazole-7-carboximidamide]: the midpoint of the response, the EC50, lay at 1520 nM.

As to `C[C@@H]1CN(CCNc2nc3nccc(/C(=N/O)Nc4ccc(F)c(Cl)c4)c3[nH]2)C[C@H](C)O1` [Example 478, N-(3-chloro-4-fluorophenyl)-2-((2-((2S,6R)-2,6-dimethylmorpholino)ethyl)amino)-N′-hydroxy-1H-imidazo[4,5-b]pyridine-7-carboximidamide], the concentration giving a half-maximal response (EC50) is 1010 nM.

As to `CO[C@@H]1CN(C)C[C@H]1Nc1nc2nccc(/C(=N/O)Nc3ccc(F)c(Cl)c3)c2[nH]1` [Example 479, N-(3-chloro-4-fluorophenyl)-N′-hydroxy-2-(((3R,4R)-4-methoxy-1-methylpyrrolidin-3-yl)amino)-1H-imidazo[4,5-b]pyridine-7-carboximidamide], the EC50 amounted to 1070 nM.

`CCN(CC)[C@H]1COC[C@@H]1Nc1nc2nccc(C(=NO)Nc3ccc(F)c(Cl)c3)c2[nH]1` [Example 480, N-(3-chloro-4-fluorophenyl)-2-(((3R,4R)-4-(diethylamino)tetrahydrofuran-3-yl)amino)-N′-hydroxy-1H-imidazo[4,5-b]pyridine-7-carboximidamide] yielded a concentration giving a half-maximal response (EC50) of 1190 nM.

With `O/N=C(\Nc1ccc(F)c(Cl)c1)c1ccnc2nc(NCCN3CCC[C@H]3C(F)(F)F)[nH]c12` [Example 481, (S)-N-(3-chloro-4-fluorophenyl)-N′-hydroxy-2-((2-(2-(trifluoromethyl)pyrrolidin-1-yl)ethyl)amino)-1H-imidazo[4,5-b]pyridine-7-carboximidamide], it took 760 nM to reach a half-maximal effect (EC50).
